pIC50: −log10 of the molar value. Where “and” joins values, the source holds several entries; their conditions need not be identical. Equal values may be shown once.
What follows are molecules tested against Cathepsin B (Homo sapiens, UniProt P07858) (assay: Cathepsin B Activity Assay). Conditions: 36 μM z-RR-AMC; 3.6 nM enzyme; pre-incubated 30 minutes at 25° C., 60 minutes at 37° C.; sigmoidal fit; read-out: Cathepsin B (Inhibition of cysteine protease activities).
Type: biochemical
Description: Cathepsin B was diluted in Cathepsin B buffer (20 mM Tris HCl pH 6.8; 1 mM EDTA; 1 mM DTT). Compounds stocks (100 mM) were stored at −20° C. in DMSO. Compounds were tested at the following final concentrations: 100 μM; 33.3 μM; 11.1 μM; 3.7 μM; 1.23 μM; 412 nM; 137 nM; 45.7 nM; 15.2 nM; 5 nM. Reactions were performed as duplicates in Black LJL 96 well plates (HE microplates; Molecular Devices; 20 μl final reaction volume). The substrate concentration for cathepsin B specificity assay was 36 μM (z-RR-AMC; Calbiochem). The concentration of the enzyme (Cathepsin B) in specificity assays was 3.6 nM. The concentrations were determined in order to perform specificity assays under initial velocities at fixed substrate concentration. Compounds were pre-incubated with enzymes for 30 minutes at 25° C. Reactions were initiated by addition of substrate to the plates containing the enzymes (+/− compounds) diluted in assay buffer. Reactions were incubated for 60 minutes at 37° C. Reactions were stopped by adding acetic acid (100 mM final). Readings were performed on a Pherastar Fluorescent Reader (BMG). δ […]. Data (mean values +/− standard deviation) were analyzed as % of control (no compound) and plotted as percentage versus the Log of the compound concentration using GraphPad (Prism). Data were fitted to a sigmoidal model (variable slope).

| pIC50 | Molecule |
| --- | --- |
| 4.76 | 6-(7)-Chloro-1-methyl-2,3,4,10,10a-pentaaza-cyclopenta[b]fluoren-9-one [Example 3/A] |
| 4.62 | Cc1nnc2nc3c(nn12)C(=O)c1ccccc1-3 [Example 1b/A, 1-Methyl-2,3,4,10,10a-pentaaza-cyclopenta[b]fluoren-9-one] |
| 6.74 | Cc1nnc2nc3c(nn12)-c1ccccc1C3=O [Example 1b/B, 3-Methyl-1,2,3a,4,10-pentaaza-cyclopenta[b]fluoren-9-one] |
| 5.30 | Nc1nnc2nc3c(nn12)C(=O)c1ccccc1-3 [Example 1c/A, 1-Amino-2,3,4,10,10a-pentaaza-cyclopenta[b]fluoren-9-one] |
| 6.99 | Nc1nnc2nc3c(nn12)-c1ccccc1C3=O [Example 1c/B, 3-Amino-1,2,3a,4,10-pentaaza-cyclopenta[b]fluoren-9-one] |
| 6.82 | CCc1nnc2nc3c(nn12)-c1ccccc1C3=O [Example 1d/B, 3-Ethyl-1,2,3a, 4,10-pentaaza-cyclopenta[b]fluoran-9-one] |
| 5.27 | CCCc1nnc2nc3c(nn12)C(=O)c1ccccc1-3 [Example 1e/A, 1-Propyl-2,3,4,10,10a-pentaaza-cyclopenta[b]fluoren-9-one] |
| 6.57 | CCCc1nnc2nc3c(nn12)-c1ccccc1C3=O [Example 1e/B, 3-Propyl-1,2,3a, 4,10-pentaaza-cyclopenta[b]fluoren-9-one] |
| 5.19 | CCCCc1nnc2nc3c(nn12)C(=O)c1ccccc1-3 [Example 1f/A, 1-Butyl-2,3,4,10,10a-pentaaza-cyclopenta[b]fluoren-9-one] |
| 6.63 | CCCCc1nnc2nc3c(nn12)-c1ccccc1C3=O [Example 1f/B, 3-Butyl-1,2,3a,4,10-pentaaza-cyclopenta[b]fluoren-9-one] |
| 5.34 | CC(C)Cc1nnc2nc3c(nn12)C(=O)c1ccccc1-3 [Example 1g/A, 1-Isobutyl-2,3,4,10,10a-pentaaza-cyclopenta[b]fluoren-9-one] |
| 6.58 | CC(C)Cc1nnc2nc3c(nn12)-c1ccccc1C3=O [Example 1g/B, 3-Isobutyl-1,2,3a,4,10-pentaaza-cyclopenta[b]fluoren-9-one] |
| 4.52 | O=C1c2ccccc2-c2nc3nnc(CO)n3nc21 [Example 1h/A, 1-Hydroxymethyl-2,3,4,10,10a-pentaaza-cyclopenta[b]fluoren-9-one] |
| 6.26 | O=C1c2ccccc2-c2nn3c(CO)nnc3nc21 [Example 1h/B] |
| 5.99 | COCc1nnc2nc3c(nn12)C(=O)c1ccccc1-3 [Example 1i/A, 1-Methoxymethyl-2,3,4,10,10a-pentaaza-cyclopenta[b]fluoren-9-one] |
| 6.50 | COCc1nnc2nc3c(nn12)-c1ccccc1C3=O [Example 1i/B, 3-Methoxymethyl-1,2,3a, 4,10-pentaaza-cyclopenta[b]fluoren-9-one] |
| 6.74 | O=C1c2ccccc2-c2nn3c(C4CC4)nnc3nc21 [Example 1j/B, 3-Cyclopropyl-1,2,3a,4,10-pentaaza-cyclopenta[b]fluoren-9-one] |
| 6.44 | O=C1c2ccccc2-c2nn3c(Cc4ccccc4)nnc3nc21 [Example 1k/B, 3-Benzyl-1,2,3a,4,10-pentaaza-cyclopenta[b]fluoren-9-one] |
| 6.83 | Cc1nnc2nc3c(nn12)-c1ccc(Cl)cc1C3=O [Example 3/B, 7-Chloro-3-methyl-1,2,3a, 4,10-pentaaza-cyclopenta[b]fluoren-9-one] |
| < 4.00 | Cn1nc2nc3c(nc2n1)-c1ccccc1C3=O [Example 4a, 2-Methyl-2H-1,2,3,4,10-pentaaza-cyclopenta[b]fluoren-9-one] |

What follows are molecules tested against T1, Caspase 3 (Homo sapiens, UniProt P42574) (assay: Caspase 3 Activity Assay). Conditions: 500 nM Ac-DEVD-AMC; 3.2 nM enzyme; pre-incubated 30 minutes at 25° C., 60 minutes at 37° C.; sigmoidal fit; read-out: Caspase 3 (Inhibition of cysteine protease activities).
T1 sequence (P42574 29-175 limits assumed): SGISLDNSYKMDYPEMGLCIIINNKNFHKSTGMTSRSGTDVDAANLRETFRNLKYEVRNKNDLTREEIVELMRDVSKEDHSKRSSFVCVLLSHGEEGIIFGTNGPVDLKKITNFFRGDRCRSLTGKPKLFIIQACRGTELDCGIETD
T1 sequence (P42574 176-277 limits assumed): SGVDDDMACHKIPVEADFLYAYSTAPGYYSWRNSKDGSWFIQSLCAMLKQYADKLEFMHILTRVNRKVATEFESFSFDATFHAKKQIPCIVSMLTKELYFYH
Type: biochemical
Description: Caspase 3 was diluted in Caspase B buffer (100 mM Hepes pH 7.5; 10% sucrose; 0.1% CHAPS). Compounds stocks (100 mM) were stored at −20° C. in DMSO. Compounds were tested at the following final concentrations: 100 μM; 33.3 μM; 11.1 μM; 3.7 μM; 1.23 μM; 412 nM; 137 nM; 45.7 nM; 15.2 nM; 5 nM. Reactions were performed as duplicates in Black LJL 96 well plates (HE microplates; Molecular Devices; 20 μl final reaction volume). The substrate concentration for caspase 3 specificity assay was 500 nM (Ac-DEVD-AMC; Promega). The concentration of the enzyme (Caspase 3) in specificity assays was 3.2 nM. The concentrations were determined in order to perform specificity assays under initial velocities at fixed substrate concentration. Compounds were pre-incubated with enzymes for 30 minutes at 25° C. Reactions were initiated by addition of substrate to the plates containing the enzymes (+/− compounds) diluted in assay buffer. Reactions were incubated for 60 minutes at 37° C. Reactions were stopped by adding acetic acid (100 mM final) Readings were performed on a Pherastar Fluorescent Reader (BMG). δ Emission 380 nm; δ Excitation=460 nm. Data (mean values +/− standard deviation) were analyzed as % of control (no compound) and plotted as percentage versus the Log of the compound concentration using GraphPad (Prism). Data were fitted to a sigmoidal model (variable slope).

| pIC50 | Molecule |
| --- | --- |
| 5.82 | 6-(7)-Chloro-1-methyl-2,3,4,10,10a-pentaaza-cyclopenta[b]fluoren-9-one [Example 3/A] |
| 5.39 | Cc1nnc2nc3c(nn12)C(=O)c1ccccc1-3 [Example 1b/A, 1-Methyl-2,3,4,10,10a-pentaaza-cyclopenta[b]fluoren-9-one] |
| 6.37 | Cc1nnc2nc3c(nn12)-c1ccccc1C3=O [Example 1b/B, 3-Methyl-1,2,3a,4,10-pentaaza-cyclopenta[b]fluoren-9-one] |
| 5.43 | Nc1nnc2nc3c(nn12)C(=O)c1ccccc1-3 [Example 1c/A, 1-Amino-2,3,4,10,10a-pentaaza-cyclopenta[b]fluoren-9-one] |
| 4.94 | CCc1nnc2nc3c(nn12)C(=O)c1ccccc1-3 [Example 1d/A, 1-Ethyl-2,3,4,10,10a-pentaaza-cyclopenta[b]fluoren-9-one] |
| 6.67 and 6.33 | CCc1nnc2nc3c(nn12)-c1ccccc1C3=O [Example 1d/B, 3-Ethyl-1,2,3a, 4,10-pentaaza-cyclopenta[b]fluoran-9-one] |
| < 4.00 | CCCc1nnc2nc3c(nn12)C(=O)c1ccccc1-3 [Example 1e/A, 1-Propyl-2,3,4,10,10a-pentaaza-cyclopenta[b]fluoren-9-one] |
| 6.14 | CCCc1nnc2nc3c(nn12)-c1ccccc1C3=O [Example 1e/B, 3-Propyl-1,2,3a, 4,10-pentaaza-cyclopenta[b]fluoren-9-one] |
| 5.34 | CCCCc1nnc2nc3c(nn12)C(=O)c1ccccc1-3 [Example 1f/A, 1-Butyl-2,3,4,10,10a-pentaaza-cyclopenta[b]fluoren-9-one] |
| 6.32 | CCCCc1nnc2nc3c(nn12)-c1ccccc1C3=O [Example 1f/B, 3-Butyl-1,2,3a,4,10-pentaaza-cyclopenta[b]fluoren-9-one] |
| < 4.00 | CC(C)Cc1nnc2nc3c(nn12)C(=O)c1ccccc1-3 [Example 1g/A, 1-Isobutyl-2,3,4,10,10a-pentaaza-cyclopenta[b]fluoren-9-one] |
| 6.20 | CC(C)Cc1nnc2nc3c(nn12)-c1ccccc1C3=O [Example 1g/B, 3-Isobutyl-1,2,3a,4,10-pentaaza-cyclopenta[b]fluoren-9-one] |
| 5.41 | O=C1c2ccccc2-c2nc3nnc(CO)n3nc21 [Example 1h/A, 1-Hydroxymethyl-2,3,4,10,10a-pentaaza-cyclopenta[b]fluoren-9-one] |
| 5.99 | O=C1c2ccccc2-c2nn3c(CO)nnc3nc21 [Example 1h/B] |
| 6.03 | COCc1nnc2nc3c(nn12)C(=O)c1ccccc1-3 [Example 1i/A, 1-Methoxymethyl-2,3,4,10,10a-pentaaza-cyclopenta[b]fluoren-9-one] |
| 6.25 | COCc1nnc2nc3c(nn12)-c1ccccc1C3=O [Example 1i/B, 3-Methoxymethyl-1,2,3a, 4,10-pentaaza-cyclopenta[b]fluoren-9-one] |
| 5.72 | O=C1c2ccccc2-c2nc3nnc(C4CC4)n3nc21 [Example 1j/A, 1-Cyclopropyl-2,3,4,10,10a-pentaaza-cyclopenta[b]fluoren-9-one] |
| 6.73 | O=C1c2ccccc2-c2nn3c(C4CC4)nnc3nc21 [Example 1j/B, 3-Cyclopropyl-1,2,3a,4,10-pentaaza-cyclopenta[b]fluoren-9-one] |
| 6.22 | O=C1c2ccccc2-c2nc3nnc(Cc4ccccc4)n3nc21 [Example 1k/A, 1-Benzyl-2,3,4,10,10a-pentaaza-cyclopenta[b]fluoren-9-one] |
| 6.79 | O=C1c2ccccc2-c2nn3c(Cc4ccccc4)nnc3nc21 [Example 1k/B, 3-Benzyl-1,2,3a,4,10-pentaaza-cyclopenta[b]fluoren-9-one] |
| 6.13 | Cc1nnc2nc3c(nn12)-c1ccc(Cl)cc1C3=O [Example 3/B, 7-Chloro-3-methyl-1,2,3a, 4,10-pentaaza-cyclopenta[b]fluoren-9-one] |
